In patent US20140094465A1, “Compounds as S-Nitrosoglutathione Reductase Inhibitors” (N30 PHARMACEUTICALS, INC., priority 2011, published 2014):
Read-outs that look alike come from different tables or passages of the source.

Molecular target: T1, S-nitrosoglutathione reductase (GSNOR) (Homo sapiens, UniProt P11766)
T1 construct: made in house; host or cells: E. coli
Assay: GSNOR assay (inhibition of GSNOR activity, NADH absorbance at 340 nm)
Format: biochemical
Experimental: Various compounds were tested in vitro for their ability to inhibit GSNOR activity.
GSNOR expression and purification is described in Biochemistry 2000, 39, 10720-10729.
Pre-cultures were grown from stabs of a GSNOR glycerol stock in 2XYT media containing 100 ug/ml ampicillin after an overnight incubation at 37° C. […] GSNOR expression was induced with 0.1% arabinose in an overnight incubation at 20° C.
E. coli cell paste was lysed by nitrogen cavitation and the clarified lysate purified by Ni affinity chromatography on an AKTA FPLC (Amersham Pharmacia). The column was eluted in 20 mM Tris pH 8.0/250 mM NaCl with a 0-500 mM imidazole gradient. Eluted GSNOR fractions containing the Smt-GSNOR fusion were digested overnight with Ulp-1 at 4° C. to remove the affinity tag then re-run on the Ni column under the same conditions. GSNOR was recovered in the flowthrough fraction and for crystallography is further purified by Q-Sepharose and Heparin flowthrough chromatography in 20 mM Tris pH 8.0, 1 mM DTT, 10 uM ZnSO4.
GSNOR assay: GSNO and enzyme/NADH Solutions are made up fresh each day. The solutions are filtered and allowed to warm to room temperature. GSNO solution: 100 mM NaPO4 (pH 7.4), 0.480 mM GSNO. 396 μL of GSNO Solution is added to a cuvette followed by 8 μL of test compound in DMSO (or DMSO only for full reaction control) and mixed with the pipette tip. Compounds to be tested are made up at a stock concentration of 10 mM in 100% DMSO. 2 fold serial dilutions are done in 100% DMSO. 8 μL of each dilution are added to an assay so that the final concentration of DMSO in the assay is 1%. The concentrations of compounds tested range from 100 to 0.003 μM. Enzyme/NADH solution: 100 mM NaPO4 (pH 7.4), 0.600 mM NADH, 1.0 μg/mL GSNO Reductase. 396 μL of the Enzyme/NADH solution is added to the cuvette to start the reaction. The cuvette is placed in the Cary 3E UV/Visible Spectrophotometer and the change in 340 nm absorbance/min at 25° C. is recorded for 3 minutes. The assays are done in triplicate for each compound concentration. IC50's for each compound are calculated using the standard curve analysis in the Enzyme Kinetics Module of SigmaPlot.
Final assay conditions: 100 mM NaPO4, pH 7.4, 0.240 mM GSNO, 0.300 mM NADH, 0.5 μg/mL GSNO Reductase, and 1% DMSO. Final volume: 800 μL/cuvette.

[1] = GSNOR inhibitor activity, Tables 1-6, read-out: IC50 range

T1 sequence (P11766 whole entry): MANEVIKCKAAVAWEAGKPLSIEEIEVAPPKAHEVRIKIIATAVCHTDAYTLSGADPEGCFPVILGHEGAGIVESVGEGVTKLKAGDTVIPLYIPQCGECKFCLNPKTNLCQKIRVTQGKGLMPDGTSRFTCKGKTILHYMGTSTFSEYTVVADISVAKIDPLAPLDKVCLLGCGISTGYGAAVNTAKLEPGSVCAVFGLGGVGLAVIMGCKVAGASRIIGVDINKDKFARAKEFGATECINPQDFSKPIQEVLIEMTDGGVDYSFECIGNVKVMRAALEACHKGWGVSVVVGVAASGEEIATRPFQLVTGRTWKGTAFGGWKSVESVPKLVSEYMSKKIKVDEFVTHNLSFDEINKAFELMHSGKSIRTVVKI

Structure (SMILES) | IC50 [1] | IC50 (GSNOR, read-out: IC50)
O=C(O)c1ccc(-c2c(C(F)(F)F)oc3cc(O)ccc3c2=O)cc1F [IV-14] | < 100 nM | 
O=C(O)c1ccc(-c2c(C(F)(F)F)oc3cc(O)ccc3c2=O)c(Cl)c1 [IV-15] | < 100 nM | 
CC(F)(F)c1oc2cc(O)ccc2c(=O)c1-c1ccc(C(=O)O)cc1 [IV-16] | < 100 nM | 
O=C(O)c1ccc(-c2c(C(F)(F)F)oc3cc(O)ccc3c2=O)cc1Cl [IV-18] | < 100 nM | 
COc1cc(C(=O)O)ccc1-c1c(C(F)(F)F)oc2cc(O)ccc2c1=O [IV-20] | < 100 nM | 
O=C(O)c1ccc(-c2c(C(F)(F)F)oc3cc(O)ccc3c2=O)s1 [IV-24] | < 100 nM | 
O=c1c(-c2ccc(-c3nnn[nH]3)cc2)c(C(F)F)oc2cc(O)ccc12 [IV-27] | < 100 nM | 
Cc1oc2cc(O)ccc2c(=O)c1-c1ccc(-c2nnn[nH]2)cc1 [IV-28] | < 100 nM | 
CS(=O)(=O)NC(=O)c1ccc(-c2c(C(F)(F)F)oc3cc(O)ccc3c2=O)cc1 [IV-32] | 100 to 1000 nM | 
O=c1[nH]c(-c2ccc(-c3c(C(F)(F)F)oc4cc(O)ccc4c3=O)cc2)ns1 [IV-33] | < 100 nM | 
Cc1sc2cc(O)ccc2c(=O)c1-c1ccc(-c2nnn[nH]2)cc1 [IV-34] | < 100 nM | 
O=C(O)c1csc(-c2c(C(F)(F)F)oc3cc(O)ccc3c2=O)c1 [IV-35] | 100 to 1000 nM | 
O=c1c(C2CCC(c3nn[nH]n3)CC2)c(C(F)(F)F)oc2cc(O)ccc12 (stereo not drawn) [IV-36] | < 100 nM | 
O=C(NO)c1ccc(-c2c(C(F)(F)F)oc3cc(O)ccc3c2=O)cc1 [IV-37] | 100 to 1000 nM | 
O=c1c(-c2ccc(-c3nnn[nH]3)cc2Cl)c(C(F)(F)F)oc2cc(O)ccc12 [IV-39] | < 100 nM | 
O=c1[nH]c(-c2ccc(-c3c(C(F)(F)F)oc4cc(O)ccc4c3=O)c(Cl)c2)no1 [IV-40] | < 100 nM | 
O=c1[nH]c(-c2ccc(-c3c(C(F)(F)F)oc4cc(O)ccc4c3=O)c(F)c2)no1 [IV-41] | < 100 nM | 
O=c1c(-c2ccc(-c3nnn[nH]3)c(Cl)c2)c(C(F)(F)F)oc2cc(O)ccc12 [IV-42] | < 100 nM | 
Cc1cc(C(=O)O)ccc1-c1c(C(F)(F)F)oc2cc(O)ccc2c1=O [IV-43] | < 100 nM | 
O=c1c(-c2ccc(-c3nnn[nH]3)cc2)coc2cc(O)ccc12 [IV-44] | < 100 nM | 
O=c1c(-c2ccc(O)c([N+](=O)[O-])c2)c(C(F)(F)F)oc2cc(O)ccc12 [IV-45, 7-hydroxy-3-(4-hydroxy-3-nitrophenyl)-2-(trifluoromethyl)-4H-chromen-4-one] | < 100 nM | 
CCOc1cc(-c2c(C(F)(F)F)oc3cc(O)ccc3c2=O)cc([N+](=O)[O-])c1O [IV-46, 3-(3-ethoxy-4-hydroxy-5-nitrophenyl)-7-hydroxy-2-(trifluoromethyl)-4H-chromen-4-one] | < 100 nM | 

Next, values leading:

IC50 [1] | IC50 (GSNOR, read-out: IC50) | Structure (SMILES)
100 to 1000 nM |  | O=C(C[C@H]1CC[C@H](C(=O)O)CC1)c1ccc(O)cc1O [VI-1, (trans)-4-(2-(2,4-dihydroxyphenyl)-2-oxoethyl)cyclohexanecarboxylic acid]
< 100 nM | < 100 nM | O=C(O)c1ccc(CC(=O)c2ccc(O)cc2F)c(F)c1 [VI-2, 3-fluoro-4-(2-(2-fluoro-4-hydroxyphenyl)-2-oxoethyl)benzoic acid]
< 100 nM |  | O=C(O)c1ccc(CC(=O)c2ccc(O)c(F)c2F)c(F)c1 [VI-3, 4-(2-(2,3-difluoro-4-hydroxyphenyl)-2-oxoethyl)-3-fluorobenzoic acid]
< 100 nM |  | O=C(O)c1ccc(CC(=O)c2ccc(O)c(F)c2)c(F)c1 [VI-4, 3-fluoro-4-(2-(3-fluoro-4-hydroxyphenyl)-2-oxoethyl)benzoic acid]
< 100 nM |  | O=C(O)c1ccc(CC(=O)c2ccc(O)c(F)c2F)cc1 [VI-5, 4-(2-(2,3-difluoro-4-hydroxyphenyl)-2-oxoethyl)benzoic acid]
< 100 nM |  | O=C(O)c1ccc(CC(=O)c2ccc(O)cc2Cl)c(F)c1 [VI-6, 4-(2-(2-chloro-4-hydroxyphenyl)-2-oxoethyl)-3-fluorobenzoic acid]
100 to 1000 nM |  | O=C(O)c1ccc(CC(=O)c2cc(F)c(O)cc2F)c(F)c1 [VI-7, 4-(2-(2,5-difluoro-4-hydroxyphenyl)-2-oxoethyl)-3-fluorobenzoic acid]
100 to 1000 nM |  | O=C(O)c1ccc(CC(=O)c2cc(F)c(O)c(F)c2)c(F)c1 [VI-8, 4-(2-(3,5-difluoro-4-hydroxyphenyl)-2-oxoethyl)-3-fluorobenzoic acid]
< 100 nM |  | O=C(O)c1ccc(CC(=O)c2ccc(O)cc2)c(F)c1 [VI-9, 3-fluoro-4-(2-(4-hydroxyphenyl)-2-oxoethyl)benzoic acid]
100 to 1000 nM |  | O=C(O)c1ccc(CC(=O)c2c(F)cc(O)cc2F)c(F)c1 [VI-10, 4-(2-(2,6-difluoro-4-hydroxyphenyl)-2-oxoethyl)-3-fluorobenzoic acid]
100 to 1000 nM |  | O=C(O)c1ccc(CC(=O)c2ccc(O)cc2)cc1 [VI-11, 4-(2-(4-hydroxyphenyl)-2-oxoethyl)benzoic acid]
1000 to 10000 nM |  | CC(C(=O)c1ccc(O)cc1O)c1ccc(C(=O)O)cc1 (stereo not drawn) [VI-12, 4-(1-(2,4-dihydroxyphenyl)-1-oxopropan-2-yl)benzoic acid]
1000 to 10000 nM |  | O=C(O)c1ccc(/C=C/c2ccc(O)cc2O)cc1 [VI-13, (E)-4-(2,4-dihydroxystyryl)benzoic acid]
100 to 1000 nM |  | O=C(O)c1ccc(NC(=O)c2ccc(O)cc2C(F)(F)F)cc1 [VI-14, 4-(4-hydroxy-2-(trifluoromethyl)benzamido)benzoic acid]
100 to 1000 nM |  | O=C(O)c1ccc(NC(=O)c2ccc(O)cc2F)cc1 [VI-15, 4-(2-fluoro-4-hydroxybenzamido)benzoic acid]
1000 to 10000 nM |  | O=C(O)c1ccc(NC(=O)c2ccc(O)cc2O)cc1 [VI-16, 4-(2,4-dihydroxybenzamido)benzoic acid]
< 100 nM |  | O=C(O)c1ccc(/C(=C\C(F)(F)F)C(=O)c2ccc(O)cc2O)cc1 [VI-17, (E)-4-(1-(2,4-dihydroxyphenyl)-4,4,4-trifluoro-1-oxobut-2-en-2-yl)benzoic acid]
100 to 1000 nM |  | O=C(O)c1ccc(CC(=O)c2ccc(O)cc2O)c(F)c1 [VI-18, 4-(2-(2,4-dihydroxyphenyl)-2-oxoethyl)-3-fluorobenzoic acid]
100 to 1000 nM |  | O=C(O)c1ccc(COc2ccc(O)cc2F)c(F)c1 [VI-19, 3-fluoro-4-((2-fluoro-4-hydroxyphenoxy)methyl)benzoic acid]
< 100 nM |  | O=C(O)c1ccc(CS(=O)(=O)c2ccc(O)c(F)c2)c(F)c1 [VI-20, 3-fluoro-4-(((3-fluoro-4-hydroxyphenyl)sulfonyl)methyl)benzoic acid]
< 100 nM |  | O=C(O)c1ccc(COc2ccc(O)c(F)c2F)c(F)c1 [VI-21, 4-((2,3-difluoro-4-hydroxyphenoxy)methyl)-3-fluorobenzoic acid]
100 to 1000 nM |  | O=C(O)c1ccc(COc2cc(F)c(O)cc2F)c(F)c1 [VI-22, 4-((2,5-difluoro-4-hydroxyphenoxy)methyl)-3-fluorobenzoic acid]
100 to 1000 nM |  | O=C(O)c1ccc(COc2ccc(O)c(F)c2)c(F)c1 [VI-23, 3-fluoro-4-((3-fluoro-4-hydroxyphenoxy)methyl)benzoic acid]
100 to 1000 nM |  | O=C(O)c1ccc(CSc2ccc(O)cc2)c(F)c1 [VI-24, 3-fluoro-4-(((4-hydroxyphenyl)thio)methyl)benzoic acid]
100 to 1000 nM |  | O=C(O)c1ccc(C[S+]([O-])c2ccc(O)cc2)c(F)c1 (stereo not drawn) [VI-25, 3-fluoro-4-(((4-hydroxyphenyl)sulfinyl)methyl)benzoic acid]
